Assay results reported in patent publication US20160145247A1, “Aminomethyl-Biaryl Derivatives Complement Factor D inhibitors and uses thereof” (NOVARTIS AG, priority 2013, published 2016).

Biological target: T1, factor D (Homo sapiens, UniProt P00746)
T1 construct: made in house; host or cells: E. coli
Assay: factor D inhibition assay of Biological Example 2
Type: biochemical

T1 sequence (P00746 26-253): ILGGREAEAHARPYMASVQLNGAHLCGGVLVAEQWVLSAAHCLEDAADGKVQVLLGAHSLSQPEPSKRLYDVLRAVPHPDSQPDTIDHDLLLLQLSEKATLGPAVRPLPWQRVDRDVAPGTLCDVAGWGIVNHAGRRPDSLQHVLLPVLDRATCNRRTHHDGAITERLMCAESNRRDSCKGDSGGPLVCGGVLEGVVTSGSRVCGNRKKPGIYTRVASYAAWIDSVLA

| IC50 [nM] | SMILES |
| --- | --- |
| 223 | NCc1cc(-c2cccc(COc3ccccc3CC(=O)O)c2)ccc1F [Example 138-D] |
| 1990 | NCc1ccc(F)c(-c2cccc(COc3ccccc3CC(=O)O)c2)c1 [Example 138-E] |
| 2190 | O=C(O)Cc1ccccc1OCc1cccc(-c2cccc(-c3ncc[nH]3)c2)c1 [Example 138-F] |
| 12 | NCc1cc(-c2cccc(COc3ccccc3CC(=O)O)c2)ccn1 [Example 138-G] |
| 5 | NCc1cccc(-c2cccc(COc3ccccc3CC(=O)O)c2)c1F [Example 138-H] |
| 301 | C[C@@H](N)c1cccc(-c2cccc(COc3ccccc3CC(=O)O)c2)n1 [Example 138-I] |
| 45 | N[C@H](CO)c1cccc(-c2cccc(COc3ccccc3CC(=O)O)c2)n1 [Example 138-K] |
| 99 | C[C@@H](N)c1cccc(-c2cccc(COc3ccccc3CC(=O)O)c2)c1F [Example 138-L] |
| 5 | NCc1cccc(-c2cc(COc3ccccc3CC(=O)O)cc(OC[C@H]3CCCO3)c2)n1 [Example 138-M] |
| 28 | NCc1cccc(-c2cccc(COc3ccccc3CC(=O)O)c2)n1 [Example 138-N] |
| 14 | N[C@H](CO)c1cccc(-c2cccc(COc3ccccc3CC(=O)O)c2)c1Cl [Example 141-B, (S)-2-(2-((3′-(1-Amino-2-hydroxyethyl)-2′-chloro-[1,1′-biphenyl]-3-yl)methoxy)phenyl)acetic acid] |
| 346 | C[C@@H](N)c1cccc(-c2cccc(COc3ccccc3CC(=O)O)c2)c1Cl [Example 142-A] |
| 77 | NCc1cccc(-c2cccc(COc3ccccc3CC(=O)O)c2)c1Cl [Example 142-B] |
| 49600 | Cc1c(-c2cccc(COc3ccccc3CC(=O)O)c2)cccc1[C@H](N)CO [Example 142-C] |
| 346 | C[C@@H](N)c1cc(-c2cccc(COc3ccccc3CC(=O)O)c2)ccn1 [Example 142-D] |
| 8 | N[C@H](CO)c1cccc(-c2cccc(COc3ccccc3CC(=O)O)c2)c1F [Example 142-E] |
| 260 | C[C@@](N)(CO)c1cccc(-c2cccc(COc3ccccc3CC(=O)O)c2)c1 [Example 142-F] |
| 12 | N[C@H](CO)c1cc(-c2cccc(COc3ccccc3CC(=O)O)c2)ccn1 [Example 142-G] |
| 22 | C[C@H](N)c1cccc(-c2cccc(COc3ccccc3CC(=O)O)c2)c1F [Example 142-H] |
| 2 | NCc1nccc(-c2cccc(COc3ccccc3CC(=O)O)c2)c1F [Example 142-I] |
| 67 | NCc1nccc(-c2cccc(COc3ccccc3CC(=O)O)c2)n1 [Example 142-J] |
| 132 | Cc1c(CN)cccc1-c1cccc(COc2ccccc2CC(=O)O)c1 [Example 143-C, 2-(2-((3′-(Aminomethyl)-2′-methyl-[1,1′-biphenyl]-3-yl)methoxy)phenyl)acetic acid] |
| 56 | NCc1cccc(-c2cccc(COc3ccccc3CC(=O)O)c2)c1O [Example 144-C, 2-(2-((3′-(Aminomethyl)-2′-hydroxy-[1,1′-biphenyl]-3-yl)methoxy)phenyl)acetic acid] |
| 44 | Cc1ccc(COc2ccccc2CC(=O)O)cc1-c1cccc(CN)c1F [Example 149, 2-(2-((3′-(Aminomethyl)-2′-fluoro-6-methyl-[1,1′-biphenyl]-3-yl)methoxy)phenyl)acetic acid] |

Continued, compound first:

| SMILES | IC50 [nM] |
| --- | --- |
| C[C@@H](N)c1cccc(-c2cc(Br)cc(COc3ccccc3CC(=O)O)c2)c1F [Example 120-U] | 12 |
| COCCc1cc(COc2ccccc2CC(=O)O)cc(-c2cccc([C@@H](C)N)c2F)c1 [Example 120-V] | 9 |
| COCCc1cc(COc2ccccc2CC(=O)O)cc(-c2cccc([C@@H](C)N)c2)c1 [Example 120-W] | 13 |
| C[C@@H](N)c1cccc(-c2cc(COc3ccccc3CC(=O)O)cc(COC(F)F)c2)c1F [Example 120-X] | 4 |
| N[C@H](CO)c1cccc(-c2cc(COc3ccccc3CC(=O)O)ccc2F)c1 [Example 122, (S)-2-(2-((3′-(1-Amino-2-hydroxyethyl)-6-fluoro-[1,1′-biphenyl]-3-yl)methoxy)phenyl)acetic acid] | 15 |
| N[C@H](CO)c1cccc(-c2cccc(COc3ccccc3CC(=O)O)c2F)c1 [Example 123, (S)-2-(2-((3′-(1-Amino-2-hydroxyethyl)-2-fluoro-[1,1′-biphenyl]-3-yl)methoxy)phenyl)acetic acid] | 312 |
| C[C@@H](N)c1cccc(-c2cc(COc3ccccc3CC(=O)O)ccc2F)c1 [Example 124, (R)-2-(2-((3′-(1-Aminoethyl)-6-fluoro-[1,1′-biphenyl]-3-yl)methoxy)phenyl)acetic acid] | 99 |
| C[C@@H](N)c1cccc(-c2cccc(COc3ccccc3CC(=O)O)c2F)c1 [Example 125, (R)-2-(2-((3′-(1-Aminoethyl)-2-fluoro-[1,1′-biphenyl]-3-yl)methoxy)phenyl)acetic acid] | 4450 |
| NCc1cccc(-c2cc(COc3ccccc3CC(=O)O)cc3c2OCO3)c1 [Example 126-B, 2-(2-((7-(3-(Aminomethyl)phenyl)benzo[d][1,3]dioxol-5-yl)methoxy)phenyl)acetic acid] | 3 |
| COc1ccc(COc2ccccc2CC(=O)O)cc1-c1cccc([C@H](N)CO)c1 [Example 127-B, (S)-2-(2-((3′-(1-Amino-2-hydroxyethyl)-6-methoxy-[1,1′-biphenyl]-3-yl)methoxy)phenyl)acetic acid] | 62 |
| N[C@H](CO)c1cccc(-c2cc(COc3ccccc3CC(=O)O)cc(NCC3CC3)c2)c1 [Example 128-C, (S)-2-(2-((3′-(1-Amino-2-hydroxyethyl)-5-((cyclopropylmethyl)amino)-[1,1′-biphenyl]-3-yl)methoxy)phenyl)acetic acid] | 3 |
| CCNc1cc(COc2ccccc2CC(=O)O)cc(-c2cccc([C@H](N)CO)c2)c1 [Example 129, (S)-2-(2-((3′-(1-Amino-2-hydroxyethyl)-5-(ethylamino)-[1,1′-biphenyl]-3-yl)methoxy)phenyl)acetic acid] | 9 |
| CNc1cc(COc2ccccc2CC(=O)O)cc(-c2cccc([C@H](N)CO)c2)c1 [Example 131, (S)-2-(2-((3′-(1-Amino-2-hydroxyethyl)-5-(methylamino)-[1,1′-biphenyl]-3-yl)methoxy)phenyl)acetic acid] | 18 |
| CN(C)c1cc(COc2ccccc2CC(=O)O)cc(-c2cccc([C@H](N)CO)c2)c1 [Example 132, (S)-2-(2-((3′-(1-Amino-2-hydroxyethyl)-5-(dimethylamino)-[1,1′-biphenyl]-3-yl)methoxy)phenyl)acetic acid] | 18 |
| Nc1cc(COc2ccccc2CC(=O)O)cc(-c2cccc([C@H](N)CO)c2)c1 [Example 133, (S)-2-(2-((5-amino-3′-(1-amino-2-hydroxyethyl)-[1,1′-biphenyl]-3-yl)methoxy)phenyl)acetic acid] | 9 |
| COc1cc(COc2ccccc2CC(=O)O)cc(-c2cccc(CN)c2)c1 [Example 134, 2-(2-((3′-(Aminomethyl)-5-methoxy-[1,1′-biphenyl]-3-yl)methoxy)phenyl)acetic acid] | 13 |
| NCc1cccc(-c2cc(COc3ccccc3CC(=O)O)cc(OC[C@H]3CCCO3)c2)c1 [Example 135, (R)-2-(2-((3′-(Aminomethyl)-5-((tetrahydrofuran-2-yl)methoxy)-[1,1′-biphenyl]-3-yl)methoxy)phenyl)acetic acid] | 5 |
| NCc1cccc(-c2cc(COc3ccccc3CC(=O)O)cc(OCC3CC3)c2)c1 [Example 136, 2-(2-((3′-(Aminomethyl)-5-(cyclopropylmethoxy)-[1,1′-biphenyl]-3-yl)methoxy)phenyl)acetic acid] | 5 |
| NCc1cccc(-c2cc(COc3ccccc3CC(=O)O)ccc2F)c1F [Example 137, 2-(2-((3′-(Aminomethyl)-2′,6-difluoro-[1,1′-biphenyl]-3-yl)methoxy)phenyl)acetic acid] | 21 |
| NCc1cc(-c2cc(COc3ccccc3CC(=O)O)cc(OC[C@H]3CCCO3)c2)ccn1 [Example 138-A] | 2 |
| NCc1ccnc(-c2cc(COc3ccccc3CC(=O)O)cc(OC[C@H]3CCCO3)c2)c1 [Example 138-B] | 88 |
| NCc1cncc(-c2cc(COc3ccccc3CC(=O)O)cc(OC[C@H]3CCCO3)c2)c1 [Example 138-C] | 1520 |
| O=C(O)Cc1ccccc1OCc1cccc(-c2cccc(C3CCCN3)c2)c1 (centres unmarked) [Example 138-J] | 2870 |
| NCc1cccc(-c2cc(COc3ccccc3CC(=O)O)cc(NCC3CC3)c2)c1 [Example 139, 2-(2-((3′-(Aminomethyl)-5-((cyclopropylmethyl)amino)-[1,1′-biphenyl]-3-yl)methoxy)phenyl)acetic acid] | 22 |
| NCc1cccc(-c2cc(COc3ccccc3CC(=O)O)cc(NC[C@@H]3CCCO3)c2)c1 [Example 140, (S)-2-(2-((3′-(Aminomethyl)-5-(((tetrahydrofuran-2-yl)methyl)amino)-[1,1′-biphenyl]-3-yl)methoxy)phenyl)acetic acid] | 3 |
| NC(=O)Cc1ccccc1OCc1cccc(-c2cccc([C@H](N)CO)c2)c1 [Example 146-C, (S)-2-(2-((3′-(1-Amino-2-hydroxyethyl)-[1,1′-biphenyl]-3-yl)methoxy)phenyl)acetamide] | 18400 |
| N[C@H](CO)c1cccc(-c2cc(COc3ccccc3CC(=O)O)cc(OCC3CC3)c2)c1 [Example 147-B, (S)-2-(2-((3′-(1-Amino-2-hydroxyethyl)-5-(cyclopropylmethoxy)-[1,1′-biphenyl]-3-yl)methoxy)phenyl)acetic acid] | 5 |
| C[C@@H](N)c1cccc(-c2cc(COc3ccccc3CC(=O)O)cc(OCC3CC3)c2)c1F [Example 148, (R)-2-(2-((3′-(1-Aminoethyl)-5-(cyclopropylmethoxy)-2′-fluoro-[1,1′-biphenyl]-3-yl)methoxy)phenyl)acetic acid] | 9 |
| C[C@@H](N)c1cccc(-c2cc(COc3ccccc3CC(=O)O)cc(NCC3CC3)c2)c1F [Example 150-C, (R)-2-(2-((3′-(1-Aminoethyl)-5-((cyclopropylmethyl)amino)-2′-fluoro-[1,1′-biphenyl]-3-yl)methoxy)phenyl)acetic acid] | 4 |
